# Measurements as given in patent US20130164347A1, “MULTILAYER POLYMERIC DRUG DELIVERY SYSTEM” (priority 2011, published 2013).
# Legend:
# [1] = In-vitro release of 5-FU from partially encapsulated multilayer polymeric films
# Procedure: In-Vitro release of 5-Fluoro-Uracil (5-FU) has been quantified over time from Partially Encapsulated Multilayer Polymeric films.
# The resulting test articles, 2.5 mm diameter×1.25 mm high, were immersed in a PBS solution supplemented by 2 percent FBS onto a shaker in an incubator at 37 degrees Celsius. Release of 5-FU was quantified by HPLC-UV as follows: after filtration, aliquots were injected onto an Agilent 1100 column (50×4.6 mm×3 um with guard column). The 5-FU detection was performed via a UV Detector (Wavelength: 265 nm). The flow rate was 1.0 mL/min. The mobile phase was a mixture of TFA (0.1 percent) and Acetonitrile.
# [2] = Thermal decomposition of bioactive agent; assay type: physicochemical
# [3] = In-vitro release of bimatoprost from fully encapsulated multilayer polymeric films; assay type: physicochemical; settings: for release profile of bimatoprost: PBS + 2 percent FBS, 37 degrees Celsius
# Procedure: In Vitro release studies were performed using the fully encapsulated polymeric films (wherein the carrier discs are fully encapsulated within the surrounding barrier layers) containing bimatoprost as prepared in Example 6.
# [4] = partially encapsulated film, 30 percent w/w
# [5] = fully encapsulated film laminated at 140 degrees Fahrenheit (60 degrees Celsius)
Compound,release profile of 5-FU ([1]; fully encapsulated films with no adhesive layers),"burst duration [1, 4]","rest period after burst [1, 4]","start of delayed sustained release [1, 4]","release profile of 5-FU ([1]; partially encapsulated film, 30 percent w/w, 2.5 mm disk, PBS + 2 percent FBS, 37 degrees Celsius)",decomposition temperature [2],release profile of bimatoprost ([3]; fully encapsulated film laminated at 131 degrees Fahrenheit (55 degrees Celsius)),"period of no or undetectable release [3, 5]","release profile of bimatoprost [3, 5]",drug released in the first 24 hours ([3]; monolayer 2 mm diameter carrier film compression molded at 152 degrees Fahrenheit (67 degrees Celsius))
"O=c1[nH]cc(F)c(=O)[nH]1 [5-FU, 5-Fluoro-Uracil]",delayed sustained release,2 days,approximately 9 days,~11 days,bimodal release profile,–,–,–,–,–
CCNC(=O)CCC/C=C\C[C@@H]1[C@@H](/C=C/[C@@H](O)CCc2ccccc2)[C@H](O)C[C@@H]1O [bimatoprost],–,–,–,–,–,70 degrees Celsius,zero-order release,10 days,delayed sustained release,99%
